Active and inactive are the calls of the source.
Experiments:
[1] = molecular target: T1, Corticotropin-releasing factor receptor 2/Corticotropin-releasing factor-binding protein (Homo sapiens, UniProt P24387+Q13324); assay: Dose Response confirmation of uHTS hits for small molecule antagonists of the CRF-binding protein and CRF-R2 receptor complex.; format: functional; details: read-out: IC50_Mean
T1 sequence (Q13324 whole entry): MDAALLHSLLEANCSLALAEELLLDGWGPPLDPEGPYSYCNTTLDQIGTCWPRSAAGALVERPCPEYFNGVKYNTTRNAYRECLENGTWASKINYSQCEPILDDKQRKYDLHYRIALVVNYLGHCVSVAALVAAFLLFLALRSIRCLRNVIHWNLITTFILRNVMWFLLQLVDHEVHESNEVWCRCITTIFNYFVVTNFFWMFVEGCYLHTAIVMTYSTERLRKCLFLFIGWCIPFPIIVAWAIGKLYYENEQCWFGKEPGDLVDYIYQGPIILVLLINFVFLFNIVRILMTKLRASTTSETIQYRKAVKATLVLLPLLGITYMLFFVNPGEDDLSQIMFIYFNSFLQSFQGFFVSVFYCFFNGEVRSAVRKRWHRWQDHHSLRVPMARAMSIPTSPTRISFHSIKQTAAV
T1 sequence (P24387 whole entry): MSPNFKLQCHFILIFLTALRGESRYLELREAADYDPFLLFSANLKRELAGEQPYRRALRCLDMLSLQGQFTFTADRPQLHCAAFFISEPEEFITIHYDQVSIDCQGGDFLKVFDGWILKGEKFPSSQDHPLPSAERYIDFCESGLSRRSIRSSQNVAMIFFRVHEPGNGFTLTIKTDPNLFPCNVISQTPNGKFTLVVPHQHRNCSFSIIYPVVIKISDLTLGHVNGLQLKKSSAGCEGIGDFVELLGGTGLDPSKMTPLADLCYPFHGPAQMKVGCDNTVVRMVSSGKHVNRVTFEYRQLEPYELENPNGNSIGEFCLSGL

[2] = CRF-BP/CRF-R2 complex antagonists, dose response, cell-based, uHTS hits, 384-well (AID 651639); format: functional, Homo sapiens; details: read-out: IC50_Mean
[3] = molecular target: T2, Aminopeptidase N (Plasmodium falciparum FcB1/Columbia, UniProt O96935); assay: P. falciparum M1AAP inhibitors, biochemical, fluorogenic H-Leu-NHMec substrate, 1536-well (AID 1445); set-up: species or system Plasmodium falciparum 3D7, 3D7
T2 sequence (O96935 whole entry): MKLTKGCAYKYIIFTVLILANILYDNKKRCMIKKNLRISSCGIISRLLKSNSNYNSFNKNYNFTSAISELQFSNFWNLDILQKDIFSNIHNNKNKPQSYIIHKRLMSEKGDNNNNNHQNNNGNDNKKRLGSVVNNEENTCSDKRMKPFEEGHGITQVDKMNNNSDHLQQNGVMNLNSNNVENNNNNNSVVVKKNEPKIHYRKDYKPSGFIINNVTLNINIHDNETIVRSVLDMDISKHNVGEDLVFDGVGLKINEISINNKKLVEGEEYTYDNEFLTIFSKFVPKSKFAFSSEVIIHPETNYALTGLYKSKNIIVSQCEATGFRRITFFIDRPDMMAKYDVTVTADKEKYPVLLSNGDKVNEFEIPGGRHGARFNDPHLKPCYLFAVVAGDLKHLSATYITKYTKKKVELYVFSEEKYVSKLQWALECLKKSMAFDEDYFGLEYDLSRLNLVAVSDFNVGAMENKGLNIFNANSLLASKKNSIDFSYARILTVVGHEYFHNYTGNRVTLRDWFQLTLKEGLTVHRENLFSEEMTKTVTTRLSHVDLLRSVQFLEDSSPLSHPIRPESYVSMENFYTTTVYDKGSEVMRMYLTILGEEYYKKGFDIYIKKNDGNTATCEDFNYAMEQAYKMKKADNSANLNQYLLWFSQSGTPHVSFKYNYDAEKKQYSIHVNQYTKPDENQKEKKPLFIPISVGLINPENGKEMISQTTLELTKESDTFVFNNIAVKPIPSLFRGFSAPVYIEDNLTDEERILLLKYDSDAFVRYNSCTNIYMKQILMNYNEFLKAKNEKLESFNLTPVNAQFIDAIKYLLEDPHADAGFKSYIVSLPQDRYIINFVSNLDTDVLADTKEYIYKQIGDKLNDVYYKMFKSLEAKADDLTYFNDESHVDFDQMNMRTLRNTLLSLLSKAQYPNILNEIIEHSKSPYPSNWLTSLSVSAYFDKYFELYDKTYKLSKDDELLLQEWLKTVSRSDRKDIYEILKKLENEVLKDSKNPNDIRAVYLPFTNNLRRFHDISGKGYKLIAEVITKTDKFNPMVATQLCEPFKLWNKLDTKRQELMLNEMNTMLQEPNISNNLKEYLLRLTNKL

[4] = molecular target: T3, Long-chain-fatty-acid--AMP ligase FadD28 (Mycobacterium tuberculosis, UniProt P9WQ59); assay: Fluorescence polarization aasay to screen for inhibitors that compete for the binding of FadD28 to a bisubstrate Measured in Biochemical System Using Plate Reader - 2147-01_Inhibitor_Dose_CherryPick_Activity.; format: functional, Mycobacterium tuberculosis H37Rv
T3 sequence (P9WQ59 whole entry): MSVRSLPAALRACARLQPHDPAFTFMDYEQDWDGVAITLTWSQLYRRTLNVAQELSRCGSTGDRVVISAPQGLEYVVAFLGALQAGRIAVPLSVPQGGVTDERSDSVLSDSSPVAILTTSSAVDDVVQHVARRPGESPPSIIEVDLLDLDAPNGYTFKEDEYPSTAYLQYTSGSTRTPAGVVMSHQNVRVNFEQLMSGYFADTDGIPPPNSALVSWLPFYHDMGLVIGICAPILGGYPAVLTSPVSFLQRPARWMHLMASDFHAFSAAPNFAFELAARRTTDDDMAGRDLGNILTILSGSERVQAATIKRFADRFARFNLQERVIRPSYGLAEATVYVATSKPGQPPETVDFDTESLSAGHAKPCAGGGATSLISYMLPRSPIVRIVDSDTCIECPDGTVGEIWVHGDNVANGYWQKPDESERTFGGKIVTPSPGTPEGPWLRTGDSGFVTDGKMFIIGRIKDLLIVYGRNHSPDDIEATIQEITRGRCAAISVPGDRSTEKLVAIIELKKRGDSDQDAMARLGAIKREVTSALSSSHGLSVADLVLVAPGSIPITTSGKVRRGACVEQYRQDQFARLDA

[5] = molecular target: Genome polyprotein (dengue virus type 2, UniProt P29990); assay: Dengue-2 NS5 methyltransferase inhibitors, primary screen, biochemical, confirmation dose response (AID 588689); format: functional
[6] = molecular target: T1, Corticotropin-releasing factor receptor 2/Corticotropin-releasing factor-binding protein; assay: activators of CRF receptor 2 with binding protein – uHTS hits, confirmation (AID 602473); format: functional; details: read-out: EC50_Mean
[7] = molecular target: DNA (cytosine-5)-methyltransferase 1 (Homo sapiens, UniProt P26358); assay: DNMT1 methyltransferase inhibitors, confirmation, biochemical, fluorescent molecular beacon (AID 602386); format: functional
[8] = molecular target: T4, Carboxy-terminal domain RNA polymerase II polypeptide A small phosphatase 1 (Homo sapiens, UniProt Q9GZU7); assay: inhibitors of CTDSP1, concentration-response testing, biochemical assay, absorbance-based, actives from ultra-high-throughput screening (AID 540297); format: functional
T4 sequence (Q9GZU7 whole entry): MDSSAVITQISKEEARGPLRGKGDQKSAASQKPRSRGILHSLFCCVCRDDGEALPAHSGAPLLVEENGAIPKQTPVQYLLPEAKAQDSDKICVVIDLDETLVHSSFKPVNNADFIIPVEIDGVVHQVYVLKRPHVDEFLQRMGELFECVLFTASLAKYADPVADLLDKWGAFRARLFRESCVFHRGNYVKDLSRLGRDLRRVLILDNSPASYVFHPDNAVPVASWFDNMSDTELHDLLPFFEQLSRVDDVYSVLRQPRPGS

[9] = THP-1 cell cytotoxicity, dose response, cytotoxicity control for Vif-APOBEC3G degradation inhibitor project, THP-1 cells (AID 1117359); format: functional; details: Human immunodeficiency virus 1, THP-1
[10] = molecular target: 5-hydroxytryptamine receptor 2A (Mus musculus, UniProt P35363); format: functional, cell-based;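 note: CHO-K1 cells with tagged receptor and beta-arrestin; agonist potency measured as compound-induced activation of the receptor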
[11] = molecular target: Mu-type opioid receptor (Homo sapiens, UniProt P35372); format: functional, cell-based;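 note: U2OS cells with beta-arrestin recruitment to OPRM1 by beta-gal complementation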
[12] = THP-1 cell cytotoxicity, dose response, cytotoxicity control for non-replicating M. tuberculosis project (AID 489025); format: functional
[13] = molecular target: T5, Trace amine-associated receptor 1 (Homo sapiens, UniProt Q96RJ0); assay: Counterscreen for agonists of the human trace amine associated receptor 1 (hTAAR1): Fluorescence-based cell-based high throughput dose response assay to identify hTAAR1 agonist that also desensitize TAAR1 receptor response.; format: functional
T5 sequence (Q96RJ0 whole entry): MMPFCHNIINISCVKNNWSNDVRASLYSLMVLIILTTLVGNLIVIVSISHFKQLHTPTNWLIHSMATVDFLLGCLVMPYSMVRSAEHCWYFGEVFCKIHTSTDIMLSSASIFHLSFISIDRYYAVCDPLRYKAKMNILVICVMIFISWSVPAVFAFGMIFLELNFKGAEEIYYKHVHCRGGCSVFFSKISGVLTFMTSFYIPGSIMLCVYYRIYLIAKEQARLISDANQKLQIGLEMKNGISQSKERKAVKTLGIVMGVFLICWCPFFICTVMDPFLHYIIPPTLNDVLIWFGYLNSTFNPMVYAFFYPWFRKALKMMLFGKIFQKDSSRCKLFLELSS

[14] = cells; format: functional, cell-based
[15] = cells; format: functional, cell-based; remark: listed apart in the source
[16] = molecular target: T5, Trace amine-associated receptor 1; assay: Fluorescence-based cell-based high throughput dose response assay to identify agonists of the human trace amine associated receptor 1 (TAAR1).; format: functional

5-hydroxytryptamine receptor 2A, sequence (P35363 whole entry): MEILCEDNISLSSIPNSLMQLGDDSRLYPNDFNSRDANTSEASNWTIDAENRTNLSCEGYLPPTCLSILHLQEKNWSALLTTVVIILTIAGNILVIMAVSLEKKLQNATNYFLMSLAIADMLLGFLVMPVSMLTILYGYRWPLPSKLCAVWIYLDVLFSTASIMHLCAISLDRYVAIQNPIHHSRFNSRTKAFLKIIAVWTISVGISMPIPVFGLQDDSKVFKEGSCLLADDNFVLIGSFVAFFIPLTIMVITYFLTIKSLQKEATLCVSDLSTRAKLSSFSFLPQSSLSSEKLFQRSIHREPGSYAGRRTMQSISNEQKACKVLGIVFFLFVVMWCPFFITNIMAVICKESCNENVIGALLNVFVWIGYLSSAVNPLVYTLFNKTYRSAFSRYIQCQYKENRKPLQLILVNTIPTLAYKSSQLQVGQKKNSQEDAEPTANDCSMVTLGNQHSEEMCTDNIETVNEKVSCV
Mu-type opioid receptor, sequence (P35372 whole entry): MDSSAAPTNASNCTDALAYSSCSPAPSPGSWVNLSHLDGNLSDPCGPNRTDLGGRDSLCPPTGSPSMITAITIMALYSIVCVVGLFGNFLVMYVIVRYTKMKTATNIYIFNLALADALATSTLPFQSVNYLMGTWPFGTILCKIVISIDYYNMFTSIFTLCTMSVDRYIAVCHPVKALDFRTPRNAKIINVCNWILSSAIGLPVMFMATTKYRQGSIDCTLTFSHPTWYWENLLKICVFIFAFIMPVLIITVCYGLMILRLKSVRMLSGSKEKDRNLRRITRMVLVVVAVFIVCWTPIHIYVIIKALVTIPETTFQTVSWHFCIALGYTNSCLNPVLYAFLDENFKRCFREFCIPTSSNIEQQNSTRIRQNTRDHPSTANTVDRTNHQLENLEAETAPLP
Genome polyprotein, sequence (P29990 2492-3391 limits assumed): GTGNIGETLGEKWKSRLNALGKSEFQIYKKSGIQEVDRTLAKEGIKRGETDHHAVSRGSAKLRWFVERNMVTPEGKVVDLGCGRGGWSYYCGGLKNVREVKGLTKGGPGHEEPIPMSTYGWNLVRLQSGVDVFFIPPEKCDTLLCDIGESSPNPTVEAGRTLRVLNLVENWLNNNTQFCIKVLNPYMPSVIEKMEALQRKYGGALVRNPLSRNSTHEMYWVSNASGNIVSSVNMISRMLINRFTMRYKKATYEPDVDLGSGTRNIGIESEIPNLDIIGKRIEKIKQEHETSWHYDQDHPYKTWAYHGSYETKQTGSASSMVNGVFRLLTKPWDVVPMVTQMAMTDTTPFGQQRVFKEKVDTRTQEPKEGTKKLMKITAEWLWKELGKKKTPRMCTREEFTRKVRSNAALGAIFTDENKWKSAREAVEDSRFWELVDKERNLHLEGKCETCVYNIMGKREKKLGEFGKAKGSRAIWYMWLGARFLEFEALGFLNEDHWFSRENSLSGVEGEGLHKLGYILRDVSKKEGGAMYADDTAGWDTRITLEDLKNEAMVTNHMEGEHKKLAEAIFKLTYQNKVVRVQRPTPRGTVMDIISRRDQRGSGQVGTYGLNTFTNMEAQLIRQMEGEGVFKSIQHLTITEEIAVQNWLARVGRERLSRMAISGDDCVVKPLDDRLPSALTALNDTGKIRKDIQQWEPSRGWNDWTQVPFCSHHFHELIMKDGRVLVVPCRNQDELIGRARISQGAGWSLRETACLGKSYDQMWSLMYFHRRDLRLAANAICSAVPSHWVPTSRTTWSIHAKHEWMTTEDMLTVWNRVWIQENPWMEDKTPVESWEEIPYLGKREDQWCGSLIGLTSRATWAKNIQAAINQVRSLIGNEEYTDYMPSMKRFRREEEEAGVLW
DNA (cytosine-5)-methyltransferase 1, sequence (P26358 whole entry, the tested form may be a part): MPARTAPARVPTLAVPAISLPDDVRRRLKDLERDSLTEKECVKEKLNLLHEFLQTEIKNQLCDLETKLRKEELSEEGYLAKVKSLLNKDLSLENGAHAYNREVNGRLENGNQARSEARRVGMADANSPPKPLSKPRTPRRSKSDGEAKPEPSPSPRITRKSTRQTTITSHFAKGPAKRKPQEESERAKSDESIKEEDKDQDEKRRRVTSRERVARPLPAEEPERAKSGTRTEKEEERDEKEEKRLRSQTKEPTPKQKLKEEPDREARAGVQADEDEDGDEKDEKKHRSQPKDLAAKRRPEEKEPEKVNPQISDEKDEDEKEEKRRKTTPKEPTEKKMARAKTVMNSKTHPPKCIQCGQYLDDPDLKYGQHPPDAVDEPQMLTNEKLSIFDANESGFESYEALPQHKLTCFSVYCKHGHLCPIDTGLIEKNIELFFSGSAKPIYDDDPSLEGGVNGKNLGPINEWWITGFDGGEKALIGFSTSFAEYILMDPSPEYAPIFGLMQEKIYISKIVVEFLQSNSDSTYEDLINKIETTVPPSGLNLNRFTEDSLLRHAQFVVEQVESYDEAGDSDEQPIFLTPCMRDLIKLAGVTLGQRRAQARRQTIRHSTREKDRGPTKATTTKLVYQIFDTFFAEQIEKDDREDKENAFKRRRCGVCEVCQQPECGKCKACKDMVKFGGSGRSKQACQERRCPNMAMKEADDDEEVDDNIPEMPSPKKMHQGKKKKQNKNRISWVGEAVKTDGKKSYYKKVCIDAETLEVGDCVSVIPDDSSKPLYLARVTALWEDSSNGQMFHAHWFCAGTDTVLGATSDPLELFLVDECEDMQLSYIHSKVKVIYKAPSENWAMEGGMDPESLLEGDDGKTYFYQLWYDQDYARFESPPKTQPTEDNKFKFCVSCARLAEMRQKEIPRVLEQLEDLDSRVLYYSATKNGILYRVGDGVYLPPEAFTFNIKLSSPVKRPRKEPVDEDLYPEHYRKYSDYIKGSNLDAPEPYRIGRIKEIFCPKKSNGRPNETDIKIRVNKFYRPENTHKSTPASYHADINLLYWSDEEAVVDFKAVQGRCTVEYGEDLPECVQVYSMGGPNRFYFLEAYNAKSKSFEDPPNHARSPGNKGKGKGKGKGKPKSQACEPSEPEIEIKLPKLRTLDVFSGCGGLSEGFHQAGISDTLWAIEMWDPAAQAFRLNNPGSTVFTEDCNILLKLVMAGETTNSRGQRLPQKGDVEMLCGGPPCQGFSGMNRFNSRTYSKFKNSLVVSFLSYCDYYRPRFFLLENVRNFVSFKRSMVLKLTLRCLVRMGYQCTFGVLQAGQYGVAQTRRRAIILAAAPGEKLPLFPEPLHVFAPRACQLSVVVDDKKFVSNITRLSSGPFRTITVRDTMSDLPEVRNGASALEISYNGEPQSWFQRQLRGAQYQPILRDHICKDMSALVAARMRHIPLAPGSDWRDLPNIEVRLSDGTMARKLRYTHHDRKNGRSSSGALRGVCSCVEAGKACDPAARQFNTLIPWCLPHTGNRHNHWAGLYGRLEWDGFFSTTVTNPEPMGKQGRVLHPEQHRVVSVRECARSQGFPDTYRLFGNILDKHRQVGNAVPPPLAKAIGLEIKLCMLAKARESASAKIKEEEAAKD

**Q.** For `C=CCOc1ccc(/C=C2\SC(=S)N(C(C(=O)O)c3ccccc3)C2=O)cc1` (stereo unspecified), which IC50 [1] is on record?
**A.** 4.06 µM (active)

**Q.** What about the IC50 [2] of the same molecule?
**A.** 14.7 µM (active)

**Q.** And the IC50 [3]?
**A.** 33.8 µM (active)

**Q.** What about the AC50 [4] of the same molecule?
**A.** 4.48 µM (active)

**Q.** And the IC50 [5]?
**A.** 40.2 µM (active)

**Q.** What about the EC50 [6] of the same molecule?
**A.** 33.2 µM (active)

**Q.** For `COc1ccc(NC(=O)CN(C)C(=O)c2cc(-c3ccco3)nc3ccccc23)cc1`, which IC50 [7] is on record?
**A.** 6.24 µM (active)

**Q.** What about the IC50 [8] of the same molecule?
**A.** 2.55 µM (active)

**Q.** What about the CC50 [9] of the same molecule?
**A.** > 40 µM (active)

**Q.** Which IC50 [1] does the source give for `O=C1NC(=S)S/C1=C\c1cccc([N+](=O)[O-])c1` here?
**A.** 16.7 µM (active)

**Q.** What about the IC50 [2] of the same molecule?
**A.** > 20 µM (inactive)

**Q.** What about the EC50 [6] of the same molecule?
**A.** 10.8 µM (active)

**Q.** For `COc1cccc(NC(=O)c2ccc(CN3CCN(c4ccccc4)CC3)cc2)c1`, which EC50 [10] is on record?
**A.** 4.28 µM (active)

**Q.** What about the EC50 [11] of the same molecule?
**A.** 92.5 µM (inactive)

**Q.** With `COc1cccc(-c2nc(CN3CCN(C(=O)c4ccco4)CC3)c(C)o2)c1OC` as the molecule, how does the EC50 [10] read?
**A.** 20 µM (inactive)

**Q.** And the EC50 [11]?
**A.** 92.5 µM (inactive)

**Q.** With `COc1cc(C(=O)CCN2CCC(c3ccccc3)C2)cc(OC)c1OC` (stereo unspecified) as the molecule, how does the CC50 [12] read?
**A.** > 40 µM (active)

**Q.** What about the IC50 [13] of the same molecule?
**A.** 2.35 µM (active)

**Q.** And the EC50 [14]?
**A.** > 29.9 µM (inactive)

**Q.** And the IC50 [15]?
**A.** > 29.9 µM (inactive)

**Q.** And the EC50 [16]?
**A.** 0.242 µM (active)

Reference: ChEMBL document CHEMBL1201862, “PubChem BioAssay data set” (2004)
